Where a name gives a salt, the structure may show the parent alone.
Legend:
Hep-3B cells = experiment: Cellular assay: erythropoietin secretion in Hep-3B cells; type: cell-based, human; conditions: Homo sapiens, Hep3B, 100 μM compound, 24 hours, percent of EPO secretion relative to assay control compound 7-[(4-Chloro-phenyl)-(5-methyl-isoxazol-3-ylamino)-methyl]-quinolin-8-ol, read-out: Cellular % EPO Stimulation
Procedure: Hep-3B cells (ATCC, Manassas, Va.) were plated in 96-well plates at 20,000 cells per well in 100 μl of DMEM containing 10% fetal bovine serum, 1% non-essential amino acids, 50 IU/mL of penicillin and 50 μg/mL of streptomycin (all cell culture reagents from Invitrogen, Carlsbad, Calif.). Twenty-four hours after plating, compounds were added and incubated for an additional 24 hours. All compounds were tested under saturating conditions with final compound concentrations at 100 μM. Fifty microliters of the supernatant was then transferred to a human Hypoxia assay kit (Meso-Scale Discovery, Gaithersburg, Md.). Erythropoietin in the supernatant was detected according to the manufacturer's instructions as follows. EPO detection plates were blocked with 3% BSA in PBS overnight and 50 μl of the supernatant was incubated at room temperature in an orbital shaker for 2 h. Twenty-five microliters of 0.5 μg/ml anti-EPO detection antibody was added for 2 hours at room temperature in an orbital shaker. After 3 washes in PBS, 150 μl of 1× read buffer is added and the plate is then read on the MSD SECTOR instrument.

human PHD2 (PHD2181-417) = molecular target: T1, human PHD2 (PHD2181-417) (Homo sapiens, UniProt Q9GZT9); experiment: PHD enzymatic assay ([14C]-succinic acid production); type: biochemical; conditions: PHD2181-417, HIF-1α peptide 10 μM, average of results; read-out: Enzyme pIC50 (converted)
T1 construct: Smt (SUMO) tag (cleaved yes); made in house; host or cells: E. coli BL21 (pBAD vector)
T1 sequence (Q9GZT9 181-417): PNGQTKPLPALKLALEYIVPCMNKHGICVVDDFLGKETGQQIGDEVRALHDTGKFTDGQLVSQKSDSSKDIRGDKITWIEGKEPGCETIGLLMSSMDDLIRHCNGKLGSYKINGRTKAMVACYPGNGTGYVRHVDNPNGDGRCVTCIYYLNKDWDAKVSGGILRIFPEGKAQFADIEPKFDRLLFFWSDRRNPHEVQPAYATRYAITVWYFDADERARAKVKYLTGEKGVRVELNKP
Procedure: Protein production was achieved by expression in BL21 cells grown in Terrific Broth containing 100 μg/ml ampicillin. Cell cultures were inoculated at 37° C. and grown to an OD600 of 0.8. Cultures were induced with 0.1% arabinose and grown overnight at 20° C. with continuous shaking at 225 rpm. Cells were then harvested by centrifugation and stored at −80° C. Cell pellets were suspended in Buffer A (50 mM Tris-HCl pH 7.2, 100 mM NaCl, 100 mM L-arginine, 1 mM TCEP, 0.05% (w/v) NP-40, 50 mM imidazole) followed by the addition of lysozyme and benzonase. Cells were lysed by sonication and the lysate was cleared by centrifugation (15,000 rpm, 90 min, 4° C.). The protein was purified by nickel affinity chromatography using a HisTrap Crude FF column (GE Healthcare). Samples were eluted in Buffer A with a 50-200 mM imidazole gradient. […] The flow-through was then dialyzed into 50 mM MES pH 6.0, 1 mM TCEP, 5 mM NaCl for ion exchange chromatography on a HiTrap SP Cation Exchange column (GE Healthcare). […] Fractions were pooled for further purification by size exclusion chromatography over a Superdex 75 Size Exclusion Column (GE Healthcare). Final protein was concentrated to 4 mg/ml and dialyzed in 10 mM PIPES pH 7.0, 100 mM NaCl, 0.5 mM TCEP.
(10 μM, California Peptide Research Inc., Napa, Calif.), and [5-^14C]-2-oxoglutaric acid (50 mCi/mmol, Moravek Chemicals, Brea, Calif.) in reaction buffer (40 mM Tris-HCl, pH 7.5, 0.4 mg/ml catalase, 0.5 mM DTT, 1 mM ascorbate) for 10 minutes. The reaction was stopped by addition of 50 μl of 70 mM H3PO4 and 50 μl of 500 mM NaH2PO4, pH3.2. Detection of [^14C]-succinic acid was achieved by separating from [5-^14C]-2-oxoglutaric acid by incubating the reaction mixture with 100 μl of 0.16 M DNP prepared in 30% perchloric acid. Next, 50 μl of unlabeled 20 mM 2-oxoglutaric acid/20 mM succinic acid, serving as carrier for the radioactivity, was added to the mixture, and was allowed to proceed for 30 minutes at room temperature. The reaction was then incubated with 50 μl of 1 M 2-oxoglutaric acid for 30 additional minutes at room temperature to precipitate the excess DNP. The reaction was then centrifuged at 2800×g for 10 minutes at room temperature to separate [^14C]-succinic acid in the supernatant from the precipitated [^14C]-dinitrophenylhydrazone. Fractions of the supernatant (400 μl) were counted using a beta counter (Beckman Coulter, Fullerton, Calif.).

Row | IC50 (human PHD2 (PHD2181-417)) | SMILES | Emax at 100 µM (Hep-3B cells)
1 | 25.1 nM | COc1cccc(C2CCCN(c3cc4c(=O)[nH]c(-n5cc(C(=O)O)cn5)nc4cc3Cl)C2)c1 (racemic) [Example 86, (rac)-1-{7-Chloro-6-[3-(3-methoxy-phenyl)-piperidin-1-yl]-4-oxo-3,4-dihydro-quinazolin-2-yl}-1H-pyrazole-4-carboxylic acid] | 71%
2 | 50.1 nM | Cc1ccc2c(=O)[nH]c(-n3cc(C(=O)O)cn3)nc2c1 [Example 10, 1-(7-Methyl-4-oxo-3,4-dihydro-quinazolin-2-yl)-1H-pyrazole-4-carboxylic acid] | 32%
3 | 158 nM | O=C(O)c1cnn(-c2nc3c(Br)cccc3c(=O)[nH]2)c1 [Example 11, 1-(8-Bromo-4-oxo-3,4-dihydro-quinazolin-2-yl)-1H-pyrazole-4-carboxylic acid] | 40%
4 | 25.1 nM | O=C(O)c1cnn(-c2nc3ccc(I)cc3c(=O)[nH]2)c1 [Example 12, 1-(6-Iodo-4-oxo-3,4-dihydro-quinazolin-2-yl)-1H-pyrazole-4-carboxylic acid] | 50%
5 | 63.1 nM | O=C(O)c1cnn(-c2nc3ccc(Br)cc3c(=O)[nH]2)c1 [Example 13, 1-(6-Bromo-4-oxo-3,4-dihydro-quinazolin-2-yl)-1H-pyrazole-4-carboxylic acid] | 35%
6 | 251 nM | O=C(O)c1cnn(-c2nc3c(Cl)cccc3c(=O)[nH]2)c1 [Example 14, 1-(8-Chloro-4-oxo-3,4-dihydro-quinazolin-2-yl)-1H-pyrazole-4-carboxylic acid] | 8%

Continued, compound first:

Row | SMILES | IC50 (human PHD2 (PHD2181-417)) | Emax at 100 µM (Hep-3B cells)
7 | O=C(O)c1cnn(-c2nc3cc(Cl)ccc3c(=O)[nH]2)c1 [Example 1, 1-(7-Chloro-4-oxo-3,4-dihydro-quinazolin-2-yl)-1H-pyrazole-4-carboxylic acid] | 50.1 nM | 37%
8 | O=C(O)c1cnn(-c2nc3cc(C(F)(F)F)ccc3c(=O)[nH]2)c1 [Example 2, 1-(7-Trifluoromethyl-4-oxo-3,4-dihydro-quinazolin-2-yl)-1H-pyrazole-4-carboxylic acid] | 158 nM | 21%
9 | O=C(O)c1cnn(-c2nc3cc(Cl)c(Cl)cc3c(=O)[nH]2)c1 [Example 3, 1-(6,7-Dichloro-4-oxo-3,4-dihydro-quinazolin-2-yl)-1H-pyrazole-4-carboxylic acid] | 25.1 nM | 37%
10 | O=C(O)c1cnn(-c2nc3ccc(F)cc3c(=O)[nH]2)c1 [Example 4, 1-(6-Fluoro-4-oxo-3,4-dihydro-quinazolin-2-yl)-1H-pyrazole-4-carboxylic acid] | 39.8 nM | 15%
11 | O=C(O)c1cnn(-c2nc3cc(F)c(F)cc3c(=O)[nH]2)c1 [Example 5, 1-(6,7-Difluoro-4-oxo-3,4-dihydro-quinazolin-2-yl)-1H-pyrazole-4-carboxylic acid, trifluoroacetate salt] | 20 nM | 21%
12 | O=C(O)c1cnn(-c2nc3cccc(Cl)c3c(=O)[nH]2)c1 [Example 6, 1-(5-Chloro-4-oxo-3,4-dihydro-quinazolin-2-yl)-1H-pyrazole-4-carboxylic acid] | 158 nM | 19%
13 | COc1cccc2c(=O)[nH]c(-n3cc(C(=O)O)cn3)nc12 [Example 7, 1-(8-Methoxy-4-oxo-3,4-dihydro-quinazolin-2-yl)-1H-pyrazole-4-carboxylic acid] | 158 nM | 25%
14 | Cc1ccc2nc(-n3cc(C(=O)O)cn3)[nH]c(=O)c2c1 [Example 8, 1-(6-Methyl-4-oxo-3,4-dihydro-quinazolin-2-yl)-1H-pyrazole-4-carboxylic acid] | 39.8 nM | 14%
15 | Cc1cccc2c(=O)[nH]c(-n3cc(C(=O)O)cn3)nc12 [Example 9, 1-(8-Methyl-4-oxo-3,4-dihydro-quinazolin-2-yl)-1H-pyrazole-4-carboxylic acid] | 79.4 nM | 49%

Source: patent US8937078B2, “Quinazolinones as prolyl hydroxylase inhibitors” (Janssen Pharmaceutica NV, priority 2009, dated 2015)
